Assay results from US6458802B1, “Antidepressant azaheterocyclymethyl derivatives of 2,3-dihydro-1,4-dioxino [2,3-f]quinoline” (Wyeth, priority 2001, dated 2002).
Counter-ions that a name gives are not always drawn. Like-named read-outs stand apart in the source and are kept apart here.

Key:
serotonin transporter = target: T1, serotonin transporter (Rattus norvegicus, UniProt P31652); assay: 3H-paroxetine displacement, affinity for the serotonin transporter; format: binding
T1 construct: displace ^3H-paroxetine from male rat frontal cortical membranes; from tissue; host or cells: male rat frontal cortex membranes
T1 sequence (P31652 whole entry): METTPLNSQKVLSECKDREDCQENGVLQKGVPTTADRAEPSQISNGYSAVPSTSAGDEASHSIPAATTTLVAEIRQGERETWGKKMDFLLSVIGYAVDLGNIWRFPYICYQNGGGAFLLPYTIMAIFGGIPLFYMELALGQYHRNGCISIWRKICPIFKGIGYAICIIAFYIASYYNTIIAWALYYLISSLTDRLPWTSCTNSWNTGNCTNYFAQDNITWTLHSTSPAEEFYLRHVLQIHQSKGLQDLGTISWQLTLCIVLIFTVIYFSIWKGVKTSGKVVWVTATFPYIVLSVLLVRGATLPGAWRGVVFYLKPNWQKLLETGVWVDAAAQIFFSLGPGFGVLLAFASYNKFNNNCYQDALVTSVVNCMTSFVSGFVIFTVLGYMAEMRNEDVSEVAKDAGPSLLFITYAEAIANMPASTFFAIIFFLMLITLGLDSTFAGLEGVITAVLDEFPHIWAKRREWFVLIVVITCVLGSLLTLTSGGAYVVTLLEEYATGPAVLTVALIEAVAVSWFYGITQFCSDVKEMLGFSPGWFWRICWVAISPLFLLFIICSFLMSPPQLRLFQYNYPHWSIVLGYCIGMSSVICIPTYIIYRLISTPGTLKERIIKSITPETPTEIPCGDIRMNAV

human 5HT1A receptors = target: T2, human 5HT1A receptors (Homo sapiens, UniProt P08908); assay: [3H] 8-OH-DPAT displacement from the 5HT1A serotonin receptor (transfected CHO cells); format: binding
T2 construct: expressed in transfected cells; host or cells: CHO cells
T2 sequence (P08908 1-422): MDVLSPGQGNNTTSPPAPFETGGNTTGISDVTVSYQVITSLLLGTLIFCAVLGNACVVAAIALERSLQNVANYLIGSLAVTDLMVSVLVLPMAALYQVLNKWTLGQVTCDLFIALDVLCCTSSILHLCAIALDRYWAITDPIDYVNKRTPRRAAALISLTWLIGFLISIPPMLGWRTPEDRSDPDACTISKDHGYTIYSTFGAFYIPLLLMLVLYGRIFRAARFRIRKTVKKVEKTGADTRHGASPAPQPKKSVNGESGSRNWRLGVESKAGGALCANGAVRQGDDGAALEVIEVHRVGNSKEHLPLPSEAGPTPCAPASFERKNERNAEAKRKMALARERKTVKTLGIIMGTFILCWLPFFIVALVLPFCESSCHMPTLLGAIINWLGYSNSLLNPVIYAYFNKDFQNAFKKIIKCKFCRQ
Excerpt: High affinity for the serotonin 5HT1A receptor was established by testing the claimed compound's ability to displace [^3H] 8-OH-DPAT (dipropylamino-tetralin) from the 5HT1A serotonin receptor following a modification of the procedure of Hall et al., J. Neurochem. 44, 1685 (1985) which utilizes CHO cells stably transfected with human 5HT1A receptors.

[1] = target: T3, cloned human 5HT1A receptors (Homo sapiens, UniProt P08908); assay: 35S-GTPγS binding assay, antagonist activity at 5HT1A receptors; format: biochemical; conditions: for IC50: 35S-GTPγS binding, reversal of the effects of the standard agonist 8-OH-DPAT, membranes with cloned human 5HT1A receptors, read-out: 5HT1A Function IC50; for Emax: maximum inhibitory effect in 35S-GTPγS binding versus 8-OH-DPAT, read-out: 5HT1A Function (Imax)
T3 construct: expressed in transfected cells
T3 sequence (P08908 1-422): T2 sequence (P08908 1-422)
Method: Antagonist activity at 5HT1A receptors was established by using a ^35S-GTPγS binding assay similar to that used by Lazareno and Birdsall (Br. J. Pharmacol. 109: 1120, 1993), in which the test compound's ability to affect the binding of 35S-GTPγS to membranes containing cloned human 5HT1A receptors was determined. Agonists produce an increase in binding whereas antagonists produce no increase but rather reverse the effects of the standard agonist 8-OH-DPAT. The test compound's maximum inhibitory effect is represented as the 1max, while its potency is defined by the IC50.

[2] = displacement of [3H] 8-OH-DPAT, CHO cells stably transfected with human 5HT1A receptors, read-out: 5HT1A Receptor Affinity KI

Compound: Cc1ccc2c3c(ccc2n1)OCC(CN1CC=C(c2c[nH]c4ccccc24)CC1)O3 (centres unmarked) [Example 9, 2-[4-(1H-Indol-3-yl)-3,6-dihydro-2H-yridin-1-ylmethyl]-8-methyl-2,3-dihydro[1,4]dioxino[2,3-f]quinoline]
- Ki (serotonin transporter): 2.34 nM
- Ki (human 5HT1A receptors): 3.02 nM
- IC50 [1]: 56.7 nM
- Emax [1]: 98.3%
- melting point: 210 °C

Compound: Cc1ccc2c3c(ccc2n1)OCC(CN1CCC(Cc2c[nH]c4ccc(F)cc24)CC1)O3 (centres unmarked) [Example 8, 2-({4-[(5-Fluoro-1H-indol-3-yl)methyl]piperidin-1-yl}methyl)-8-methyl-2,3-dihydro[1,4]dioxino[2,3-f]quinoline]
- Ki (serotonin transporter; displacement of 3H-paroxetine from male rat frontal cortical membranes, read-out: 5-HT Transporter Affinity KI): 2.56 nM
- Ki (human 5HT1A receptors; [2]): 7.24 nM
- melting point: 91 to 92 °C

Compound: Cc1ccc2[nH]cc(C3=CCN(CC4COc5ccc6nc(C)ccc6c5O4)CC3)c2c1 (centres unmarked) (as salt: fumarate) (hydrate or solvate) [Example 22, 2-[4-(5-Methyl-1H-indol-3-yl)-3,6-dihydro-2H-pyridin-1-ylmethyl]-8-methyl-2,3-dihydro[1,4]dioxino[2,3-f]quinoline]
- melting point: 150 to 155 °C

Compound: Fc1cc2c(c3cccnc13)OC(CN1CC=C(c3c[nH]c4ccccc34)CC1)CO2 (centres unmarked) [Example 16, 6-Fluoro-2-[4-(1H-indol-3-yl)-3,6-dihydro-2H-pyridin-1-ylmethyl]-2,3-dihydro[1,4]dioxino[2,3-f]quinoline]
- Ki (serotonin transporter): 21 nM
- Ki (human 5HT1A receptors; [2]): 55.9 nM
- melting point: 215 °C

Compound: Cc1ccc2c3c(ccc2n1)OCC(CN1CC=C(c2c[nH]c4ccc(F)cc24)CC1)O3 (centres unmarked) (as salt: fumarate) (hydrate or solvate) [Example 11, 2-[4-(5-Fluoro-1H-indol-3-yl)-3,6-dihydro-2H-pyridin-1-ylmethyl]-8-methyl-2,3-dihydro[1,4]dioxino[2,3-f]quinoline]
- melting point: 198 to 199 °C

Compound: CCc1ccc2c3c(ccc2n1)OCC(CN1CC=C(c2c[nH]c4ccccc24)CC1)O3 (centres unmarked) [Example 13, 8-Ethyl-2-[(4-(1H-indol-3-yl)-3,6-dihydropyridin-1(2H)-yl)methyl]-2,3-dihydro[1,4]dioxino[2,3-f]quinoline]
- Ki (serotonin transporter): 4.9 nM
- Ki (human 5HT1A receptors): 6.82 nM
- IC50 [1]: 162 nM
- Emax [1]: 88.7%
- melting point: 190 °C

Compound: CCc1ccc2c3c(ccc2n1)OCC(CN1CC=C(c2c[nH]c4ccc(F)cc24)CC1)O3 (centres unmarked) (as salt: fumarate) (hydrate or solvate) [Example 14, 8-Ethyl-2-[(4-(5-fluoro-1H-indol-3-yl)-3,6-dihydropyridin-1(2H)-yl)methyl]-2,3-dihydro[1,4]dioxino[2,3-f]quinoline]
- melting point: 143 to 144 °C

Compound: Cc1cnc2ccc3c(c2c1)OC(CN1CC=C(c2c[nH]c4ccccc24)CC1)CO3 (centres unmarked) [Example 23, 2-[4-(1H-Indol-3-yl)-3,6-dihydro-2H-pyridin-1-ylmethyl]-9-methyl-2,3-dihydro[1,4]dioxino[2,3-f]quinoline]
- Ki (serotonin transporter): 28 nM
- Ki (human 5HT1A receptors; [2]): 7.76 nM
- melting point: 211 to 213 °C

Compound: Fc1ccc2[nH]cc(C3=CCN(C[C@H]4COc5ccc6ncccc6c5O4)CC3)c2c1 (hydrate or solvate) [Example 2]
- melting point: 184 °C

Compound: NC(=O)c1ccc2[nH]cc(C3=CCN(C[C@H]4COc5ccc6ncccc6c5O4)CC3)c2c1 (as salt: fumarate) (hydrate or solvate) [Example 6, 3-[1-(2,3-Dihydro[1,4]dioxino[2,3-f]qiuinolin-2-ylmethyl)-1,2,3,6-tetrahydropyridin-4-yl]-1H-indole-5-carboxylic Acid Amide]
- melting point: 219 °C

Compound: Cc1ccc2c3c(ccc2n1)OC[C@H](CN1CC=C(c2c[nH]c4c(F)cccc24)CC1)O3 [Example 21]
- Ki (serotonin transporter): 2.94 nM
- Ki (human 5HT1A receptors): 7.75 nM
- IC50 [1]: 51.7 nM
- Emax [1]: 100%
- melting point: 205 to 221 °C
